Test results: ChEMBL document CHEMBL4507295 (2021)

Key:
[1] = target: Receptor-type tyrosine-protein kinase FLT3 (Homo sapiens) (UniProt P36888); details: Compound concentration 1000.0 nM
[2] = target: Cyclin-dependent kinase-like 1 (Homo sapiens) (UniProt Q00532); details: Compound concentration 1000.0 nM
[3] = target: Myotonin-protein kinase (Homo sapiens) (UniProt Q09013); details: Compound concentration 1000.0 nM
[4] = target: Ankyrin repeat and protein kinase domain-containing protein 1 (Homo sapiens) (UniProt Q8NFD2); details: Compound concentration 1000.0 nM
[5] = system: Mast/stem cell growth factor receptor Kit (Homo sapiens), P10721 [D816H]; details: Compound concentration 1000.0 nM
[6] = target: Serine/threonine-protein kinase 17B (Homo sapiens) (UniProt O94768); details: Compound concentration 1000.0 nM
[7] = system: Tyrosine-protein kinase ABL1 (Homo sapiens), P00519 [M351T]; details: Compound concentration 1000.0 nM
[8] = target: Cyclin-dependent kinase 18 (Homo sapiens) (UniProt Q07002); details: Compound concentration 1000.0 nM
[9] = target: Serine/threonine-protein kinase PLK3 (Homo sapiens) (UniProt Q9H4B4); details: Compound concentration 1000.0 nM
[10] = target: Dual specificity tyrosine-phosphorylation-regulated kinase 1B (Homo sapiens) (UniProt Q9Y463); details: Compound concentration 1000.0 nM
[11] = target: Kappa-type opioid receptor (Homo sapiens) (UniProt P41145); details: Compound concentration 10.0 uM
[12] = target: Serine/threonine-protein kinase haspin (Homo sapiens) (UniProt Q8TF76); details: Compound concentration 1000.0 nM
[13] = target: Serine/threonine-protein kinase 36 (Homo sapiens) (UniProt Q9NRP7); details: Compound concentration 1000.0 nM
[14] = target: Dual specificity mitogen-activated protein kinase kinase 7 (Homo sapiens) (UniProt O14733); details: Compound concentration 1000.0 nM
[15] = target: Histamine H2 receptor (Homo sapiens) (UniProt P25021); details: Compound concentration 10.0 uM
[16] = system: Hepatocyte growth factor receptor (Homo sapiens), P08581 [M1250T]; details: Compound concentration 1000.0 nM
[17] = system: Proto-oncogene tyrosine-protein kinase receptor Ret (Homo sapiens), P07949 [V804M]; details: Compound concentration 1000.0 nM
[18] = target: Serine/threonine-protein kinase PRP4 homolog (Homo sapiens) (UniProt Q13523); details: Compound concentration 1000.0 nM
[19] = target: Citron Rho-interacting kinase (Homo sapiens) (UniProt O14578); details: Compound concentration 1000.0 nM
[20] = target: MAP kinase-activated protein kinase 5 (Homo sapiens) (UniProt Q8IW41); details: Compound concentration 1000.0 nM
[21] = system: Tyrosine-protein kinase ABL1 (Homo sapiens), P00519 [T315I]; details: Compound concentration 1000.0 nM
[22] = target: Serine/threonine-protein kinase 26 (Homo sapiens) (UniProt Q9P289); details: Compound concentration 1000.0 nM
[23] = target: Mitogen-activated protein kinase kinase kinase 3 (Homo sapiens) (UniProt Q99759); details: Compound concentration 1000.0 nM
[24] = target: Serine/threonine-protein kinase RIO3 (Homo sapiens) (UniProt O14730); details: Compound concentration 1000.0 nM
[25] = target: Serine/threonine-protein kinase MARK2 (Homo sapiens) (UniProt Q7KZI7); details: Compound concentration 1000.0 nM
[26] = target: Serine/threonine-protein kinase pim-2 (Homo sapiens) (UniProt Q9P1W9); details: Compound concentration 1000.0 nM
[27] = target: Mast/stem cell growth factor receptor Kit (Homo sapiens) (UniProt P10721); details: Compound concentration 1000.0 nM
[28] = target: Phosphatidylinositol 3-kinase catalytic subunit type 3 (Homo sapiens) (UniProt Q8NEB9); details: Compound concentration 1000.0 nM
[29] = target: Rhodopsin kinase GRK7 (Homo sapiens) (UniProt Q8WTQ7); details: Compound concentration 1000.0 nM
[30] = target: Mitogen-activated protein kinase 9 (Homo sapiens) (UniProt P45984); details: Compound concentration 1000.0 nM
[31] = system: Hepatocyte growth factor receptor (Homo sapiens), P08581 [Y1235D]; details: Compound concentration 1000.0 nM
[32] = target: Calcium/calmodulin-dependent protein kinase type 1G (Homo sapiens) (UniProt Q96NX5); details: Compound concentration 1000.0 nM
[33] = target: Tyrosine-protein kinase receptor UFO (Homo sapiens) (UniProt P30530); details: Compound concentration 1000.0 nM
[34] = target: Mitogen-activated protein kinase kinase kinase 2 (Homo sapiens) (UniProt Q9Y2U5); details: Compound concentration 1000.0 nM
[35] = target: Histamine H3 receptor (Homo sapiens) (UniProt Q9Y5N1); details: Compound concentration 10.0 uM
[36] = target: Serine/threonine-protein kinase WNK4 (Homo sapiens) (UniProt Q96J92); details: Compound concentration 1000.0 nM
[37] = target: Ribosomal protein S6 kinase alpha-1 (Homo sapiens) (UniProt Q15418); details: Compound concentration 1000.0 nM
[38] = target: AP2-associated protein kinase 1 (Homo sapiens) (UniProt Q2M2I8); details: Compound concentration 1000.0 nM
[39] = target: Activin receptor type-1-like (Homo sapiens) (UniProt P37023); details: Compound concentration 1000.0 nM
[40] = target: MAP kinase-interacting serine/threonine-protein kinase 1 (Homo sapiens) (UniProt Q9BUB5); details: Compound concentration 1000.0 nM
[41] = target: Calcium/calmodulin-dependent protein kinase type II subunit delta (Homo sapiens) (UniProt Q13557); details: Compound concentration 1000.0 nM
[42] = target: Mitogen-activated protein kinase kinase kinase 1 (Homo sapiens) (UniProt Q13233); details: Compound concentration 1000.0 nM
[43] = target: Beta-3 adrenergic receptor (Homo sapiens) (UniProt P13945); details: Compound concentration 10.0 uM
[44] = target: Serine/threonine-protein kinase Chk1 (Homo sapiens) (UniProt O14757); details: Compound concentration 1000.0 nM
[45] = target: Phosphatidylinositol 4-phosphate 3-kinase C2 domain-containing subunit beta (Homo sapiens) (UniProt O00750); details: Compound concentration 1000.0 nM

Chain of Ribosomal protein S6 kinase alpha-1 (Homo sapiens) (Q15418 whole entry): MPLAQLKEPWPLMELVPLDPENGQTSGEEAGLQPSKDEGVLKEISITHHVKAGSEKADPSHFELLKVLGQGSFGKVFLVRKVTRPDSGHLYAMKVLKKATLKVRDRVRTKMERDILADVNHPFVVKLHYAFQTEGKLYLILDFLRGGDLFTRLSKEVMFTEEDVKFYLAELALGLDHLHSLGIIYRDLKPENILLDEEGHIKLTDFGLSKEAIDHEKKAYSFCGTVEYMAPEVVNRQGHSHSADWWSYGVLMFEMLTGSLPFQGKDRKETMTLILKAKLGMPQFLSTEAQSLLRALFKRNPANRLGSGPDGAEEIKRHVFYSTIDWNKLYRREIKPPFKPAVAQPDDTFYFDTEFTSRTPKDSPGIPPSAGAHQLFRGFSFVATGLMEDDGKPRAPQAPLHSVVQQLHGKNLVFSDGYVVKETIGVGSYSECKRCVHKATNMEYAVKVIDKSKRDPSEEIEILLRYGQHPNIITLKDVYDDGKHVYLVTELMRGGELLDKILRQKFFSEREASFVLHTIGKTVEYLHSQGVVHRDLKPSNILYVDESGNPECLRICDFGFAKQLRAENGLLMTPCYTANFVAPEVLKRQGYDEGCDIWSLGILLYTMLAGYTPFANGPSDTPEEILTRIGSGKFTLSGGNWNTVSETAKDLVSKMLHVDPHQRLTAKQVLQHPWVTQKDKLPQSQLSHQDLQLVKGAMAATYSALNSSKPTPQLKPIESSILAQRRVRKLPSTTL
Chain of Serine/threonine-protein kinase MARK2 (Homo sapiens) (Q7KZI7 whole entry): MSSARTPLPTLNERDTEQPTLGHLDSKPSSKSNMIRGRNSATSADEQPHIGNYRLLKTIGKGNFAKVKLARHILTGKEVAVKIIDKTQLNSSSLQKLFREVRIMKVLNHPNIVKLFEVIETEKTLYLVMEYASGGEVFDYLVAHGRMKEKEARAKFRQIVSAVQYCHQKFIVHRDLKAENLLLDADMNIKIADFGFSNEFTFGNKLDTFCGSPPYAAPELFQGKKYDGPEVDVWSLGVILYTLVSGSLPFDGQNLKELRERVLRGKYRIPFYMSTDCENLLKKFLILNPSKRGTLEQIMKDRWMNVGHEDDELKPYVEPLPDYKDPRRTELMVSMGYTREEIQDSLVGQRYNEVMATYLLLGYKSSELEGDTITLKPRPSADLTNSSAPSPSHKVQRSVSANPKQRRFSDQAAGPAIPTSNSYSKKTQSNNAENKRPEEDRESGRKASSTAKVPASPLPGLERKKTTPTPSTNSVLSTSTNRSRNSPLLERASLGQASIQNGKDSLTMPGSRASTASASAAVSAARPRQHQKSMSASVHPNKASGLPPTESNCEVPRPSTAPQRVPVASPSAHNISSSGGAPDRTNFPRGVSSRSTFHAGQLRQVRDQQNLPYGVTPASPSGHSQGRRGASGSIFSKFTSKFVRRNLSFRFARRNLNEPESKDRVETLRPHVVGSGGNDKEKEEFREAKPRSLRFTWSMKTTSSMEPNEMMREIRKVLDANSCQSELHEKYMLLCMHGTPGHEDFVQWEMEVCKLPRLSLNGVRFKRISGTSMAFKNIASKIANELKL
Chain of Kappa-type opioid receptor (Homo sapiens) (P41145 whole entry): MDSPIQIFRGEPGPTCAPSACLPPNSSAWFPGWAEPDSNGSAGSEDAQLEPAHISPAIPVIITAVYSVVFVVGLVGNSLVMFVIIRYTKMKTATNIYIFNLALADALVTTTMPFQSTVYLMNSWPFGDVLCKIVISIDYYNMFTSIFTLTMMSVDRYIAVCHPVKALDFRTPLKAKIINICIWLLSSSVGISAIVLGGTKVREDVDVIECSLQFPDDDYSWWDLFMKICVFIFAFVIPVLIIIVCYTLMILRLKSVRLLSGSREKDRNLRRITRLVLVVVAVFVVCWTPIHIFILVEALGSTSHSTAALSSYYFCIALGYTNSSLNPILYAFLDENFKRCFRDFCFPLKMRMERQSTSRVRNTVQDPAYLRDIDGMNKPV
Chain of AP2-associated protein kinase 1 (Homo sapiens) (Q2M2I8 whole entry, looked up): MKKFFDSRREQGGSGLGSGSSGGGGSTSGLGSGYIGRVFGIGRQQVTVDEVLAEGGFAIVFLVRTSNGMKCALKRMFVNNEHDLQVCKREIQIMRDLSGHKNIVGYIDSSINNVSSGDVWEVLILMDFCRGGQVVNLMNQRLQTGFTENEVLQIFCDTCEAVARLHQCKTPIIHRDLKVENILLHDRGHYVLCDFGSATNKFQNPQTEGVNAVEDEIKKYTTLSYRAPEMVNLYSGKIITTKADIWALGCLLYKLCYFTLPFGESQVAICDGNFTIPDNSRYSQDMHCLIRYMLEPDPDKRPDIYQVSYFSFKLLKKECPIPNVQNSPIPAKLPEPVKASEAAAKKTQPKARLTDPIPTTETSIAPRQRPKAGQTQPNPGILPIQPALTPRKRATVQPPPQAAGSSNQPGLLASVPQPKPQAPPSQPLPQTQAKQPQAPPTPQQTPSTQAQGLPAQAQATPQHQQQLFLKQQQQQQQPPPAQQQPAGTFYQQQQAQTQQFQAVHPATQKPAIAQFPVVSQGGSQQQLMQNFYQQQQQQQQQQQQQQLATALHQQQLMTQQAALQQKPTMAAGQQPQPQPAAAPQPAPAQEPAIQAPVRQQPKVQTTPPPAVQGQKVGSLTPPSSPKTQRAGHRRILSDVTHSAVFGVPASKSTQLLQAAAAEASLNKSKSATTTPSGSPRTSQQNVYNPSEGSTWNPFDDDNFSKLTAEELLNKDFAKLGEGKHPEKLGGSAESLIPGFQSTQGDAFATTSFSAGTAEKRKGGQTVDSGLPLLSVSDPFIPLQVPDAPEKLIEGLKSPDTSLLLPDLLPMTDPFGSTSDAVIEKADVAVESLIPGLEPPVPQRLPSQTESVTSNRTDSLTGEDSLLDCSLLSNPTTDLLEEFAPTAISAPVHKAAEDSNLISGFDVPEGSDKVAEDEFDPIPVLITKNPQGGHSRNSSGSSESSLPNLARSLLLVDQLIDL
Chain of Phosphatidylinositol 3-kinase catalytic subunit type 3 (Homo sapiens) (Q8NEB9 whole entry): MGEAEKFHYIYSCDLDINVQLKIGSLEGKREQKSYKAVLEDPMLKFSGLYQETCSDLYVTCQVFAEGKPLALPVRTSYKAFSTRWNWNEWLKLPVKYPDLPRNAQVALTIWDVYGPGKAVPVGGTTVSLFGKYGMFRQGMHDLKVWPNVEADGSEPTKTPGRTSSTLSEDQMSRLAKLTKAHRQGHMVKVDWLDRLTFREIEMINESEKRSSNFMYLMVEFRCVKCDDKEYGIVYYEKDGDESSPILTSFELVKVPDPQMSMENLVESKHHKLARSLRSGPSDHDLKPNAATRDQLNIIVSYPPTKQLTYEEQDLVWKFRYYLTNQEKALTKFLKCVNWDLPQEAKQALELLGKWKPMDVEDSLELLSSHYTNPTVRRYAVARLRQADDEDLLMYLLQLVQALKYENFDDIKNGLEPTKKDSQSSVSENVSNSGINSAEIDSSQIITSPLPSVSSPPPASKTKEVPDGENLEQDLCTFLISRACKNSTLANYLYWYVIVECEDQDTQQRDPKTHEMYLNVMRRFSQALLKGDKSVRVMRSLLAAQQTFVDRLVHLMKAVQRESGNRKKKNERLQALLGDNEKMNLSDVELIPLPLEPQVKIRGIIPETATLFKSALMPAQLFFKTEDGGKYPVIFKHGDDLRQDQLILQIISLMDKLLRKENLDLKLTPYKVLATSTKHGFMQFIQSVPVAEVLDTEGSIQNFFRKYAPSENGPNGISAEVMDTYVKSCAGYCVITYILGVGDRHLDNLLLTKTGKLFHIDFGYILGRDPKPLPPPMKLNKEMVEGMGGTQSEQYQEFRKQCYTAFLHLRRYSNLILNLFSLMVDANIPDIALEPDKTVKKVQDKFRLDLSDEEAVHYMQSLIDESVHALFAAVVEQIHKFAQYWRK
Chain of Proto-oncogene tyrosine-protein kinase receptor Ret (Homo sapiens), P07949 [V804M] (P07949 whole entry V804M): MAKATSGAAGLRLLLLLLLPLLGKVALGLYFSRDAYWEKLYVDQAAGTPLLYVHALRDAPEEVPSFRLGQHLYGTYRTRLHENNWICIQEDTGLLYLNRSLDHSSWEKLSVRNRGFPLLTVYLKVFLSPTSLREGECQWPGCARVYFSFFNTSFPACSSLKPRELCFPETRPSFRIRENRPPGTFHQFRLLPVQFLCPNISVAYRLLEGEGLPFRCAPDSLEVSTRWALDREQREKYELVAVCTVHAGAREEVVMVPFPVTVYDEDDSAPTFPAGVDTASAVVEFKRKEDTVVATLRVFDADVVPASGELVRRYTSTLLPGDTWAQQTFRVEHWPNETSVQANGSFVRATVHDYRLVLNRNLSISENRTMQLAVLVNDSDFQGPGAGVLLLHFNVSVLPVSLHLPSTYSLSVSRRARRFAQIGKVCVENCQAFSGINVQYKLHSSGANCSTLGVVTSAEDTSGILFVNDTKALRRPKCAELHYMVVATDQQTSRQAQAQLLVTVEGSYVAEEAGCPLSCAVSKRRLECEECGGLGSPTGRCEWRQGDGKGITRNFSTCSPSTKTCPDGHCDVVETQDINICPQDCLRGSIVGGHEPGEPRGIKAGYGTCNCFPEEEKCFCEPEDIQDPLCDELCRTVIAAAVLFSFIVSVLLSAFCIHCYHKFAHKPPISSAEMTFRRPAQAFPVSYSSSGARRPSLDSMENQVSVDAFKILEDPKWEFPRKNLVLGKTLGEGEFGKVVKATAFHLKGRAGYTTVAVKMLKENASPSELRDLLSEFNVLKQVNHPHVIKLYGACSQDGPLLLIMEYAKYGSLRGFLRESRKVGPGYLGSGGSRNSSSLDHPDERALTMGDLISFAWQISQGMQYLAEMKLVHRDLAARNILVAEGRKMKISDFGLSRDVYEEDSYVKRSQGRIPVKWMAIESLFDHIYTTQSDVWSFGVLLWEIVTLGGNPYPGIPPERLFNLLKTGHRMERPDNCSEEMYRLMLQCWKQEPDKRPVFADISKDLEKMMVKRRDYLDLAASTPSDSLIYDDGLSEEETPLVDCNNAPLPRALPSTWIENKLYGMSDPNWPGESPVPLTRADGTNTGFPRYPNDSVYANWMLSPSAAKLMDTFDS

N#CC1(c2ccccn2)CCN(Cc2cc(C(=O)N3CCCC3)c(=O)n3ccccc23)CC1
inactive: residual activity [1] 86% | residual activity [2] 78% | residual activity [3] 90% | residual activity [4] 79% | residual activity [5] 100% | residual activity [6] 93% | residual activity [7] 100% | residual activity [8] 100% | residual activity [9] 100% | residual activity [10] 53% | inhibition [11] 46.8% | residual activity [12] 100% | residual activity [13] 98% | residual activity [14] 100% | inhibition [15] 3.1% | residual activity [16] 80% | residual activity [17] 95% | residual activity [18] 78% | residual activity [19] 99% | residual activity [20] 100% | residual activity [21] 83% | residual activity [22] 100% | residual activity [23] 92% | residual activity [24] 90% | residual activity [25] 100% | residual activity [26] 77% | residual activity [27] 100% | residual activity [28] 89% | residual activity [29] 87% | residual activity [30] 97% | residual activity [31] 97% | residual activity [32] 100% | residual activity [33] 78% | residual activity [34] 100% | inhibition [35] 11.2% | residual activity [36] 81% | residual activity [37] 100% | residual activity [38] 100% | residual activity [39] 100% | residual activity [40] 100% | residual activity [41] 97% | residual activity [42] 98% | inhibition [43] 17.4% | residual activity [44] 90% | residual activity [45] 100%

N#CC1(c2ccccn2)CCN(Cc2cc(C(=O)O)c(=O)n3ccccc23)CC1 [MSD-M1PAM]
inactive: residual activity [1] 85% | residual activity [2] 100% | residual activity [3] 97% | residual activity [4] 68% | residual activity [5] 85% | residual activity [6] 100% | residual activity [7] 57% | residual activity [8] 100% | residual activity [9] 85% | residual activity [10] 98% | inhibition [11] 47.3% | residual activity [12] 100% | residual activity [13] 100% | residual activity [14] 95% | inhibition [15] 11.7% | residual activity [16] 96% | residual activity [17] 92% | residual activity [18] 100% | residual activity [19] 98% | residual activity [20] 56% | residual activity [21] 80% | residual activity [22] 100% | residual activity [23] 77% | residual activity [24] 96% | residual activity [25] 100% | residual activity [26] 100% | residual activity [27] 87% | residual activity [28] 70% | residual activity [29] 77% | residual activity [30] 83% | residual activity [31] 99% | residual activity [32] 100% | residual activity [33] 91% | residual activity [34] 76% | inhibition [35] 4.08% | residual activity [36] 75% | residual activity [37] 94% | residual activity [38] 100% | residual activity [39] 95% | residual activity [40] 85% | residual activity [41] 100% | residual activity [42] 98% | inhibition [43] -5.05% | residual activity [44] 100% | residual activity [45] 97%
